The experiment concerns complementary RNA target. Nature of the experiment: Thermal dissociation from complementary RNA target (second Example H). Type of experiment: binding. As to conditions: for Td: 50% of bound oligomer denatured from RNA target, pH 6.8 denaturation buffer; for ΔTd/DE Bond: per DE bond. The procedure: The following oligomers [SEQ. ID. NO. ] were tested for their ability to bind a complementary RNA target. Each has the same nucleotide sequence but with a different number of phosphodiester and/or methylphosphonate linkages.
An RNA target containing a tandem array of complementary target sequences connected by noncomplementary sequences (170 nt long) was prepared from synthetic DNA oligonucleotides by standard closing techniques.
Each of the test oligomers (above) was end-labeled with ^32 p using […] and T4 polynucleotide kinase. The resulting labeled oligomers were purified on a Nensorb-20 column (New England Nuclear/DuPont) according to the manufacturer's specifications. The final specific activity of each oligomer ranged between 2×10^6 and 4×10^6 cpm/pmol (Cerenkov radiation). Annealing reactions were prepared with one of the test oligomers (100,000 cpms) and 250 pmols of RNA target in 20 mM potassium phosphate, 0.03% potassium sarkosylate, 0.1 mM EDTA, pH 7.2, total volume--200 μL. These annealing reactions were heated to 80° C. and then cooled slowly to 4° C. over a period of about 4 to 6 hours. Next, 20 μL aliquots from each tube were transferred to separate tubes containing 0.5 mL of 0.1 M sodium phosphate, 0.1% Triton X-100, pH 6.8. This transfer step was done on ice. The resulting tubes were individually heated at various temperatures "denaturation temperatures", ranging from 10 to 70° C.) in a circulating water bath for five minutes and then quickly cooled by immersion in crushed ice. Next, 10 μL of Amine BioMag (Advanced Magnetics, Inc., Cat. No. M-4100, 50 mg/mL stock in water) was added to the tube and it was vortexed briefly and placed back on ice for 5 minutes. During this time period, the RAN target strands (both free and bound) separated onto the magnetic support. […] Thus, the amount of radioactivity bound to the support was proportional to the amount of hybridized oligomer remaining at each denaturation temperature after five minutes. A curve was then plotted for the percentage of hybridized oligomer remaining at each denaturation temperature. The thermal dissociation temperature (Td) was defined as the temperature at which 50% of the bound oligomer had denatured away from the RNA target. The following table summarizes the results from this experiment.

Consider “5'-GpAmTmAmTdCmTmGpCmGmGmTmGmTpCmCmAmT-3' [Oligomer 1362]”, for which the Td came out at 30.7 °C and the “ΔTd/DE Bond” value was determined as 0.5 °C. Consider “5'-GpAmTmAmTmCmTmGmCmGmGmTmGmTmCmCmAmT-3' [Oligomer 1036]”, for which the Td was found to be 29.3 °C. Consider “5'-GpAmTmAmTmCpTmGmCpGmGmTmGmTmCpCpAmT-3' [Oligomer 1361]”, for which the Td was found to be 32.2 °C and the “ΔTd/DE Bond” value was determined as 0.7 °C. On to “5'-GpAmTpAmTpCmTpGmCmGmGmTpGmTpCmCmAmT-3' [Oligomer 1359]”, for which the Td is 34.0 °C and the “ΔTd/DE Bond” value was found to be 0.9 °C.

As to “5'-GpAmTpAmTpCpTpGmCpGmGmTpGmTpCpCpAmT-3' [Oligomer 1363]”, the Td stood at 45.2 °C and the “ΔTd/DE Bond” value worked out at 1.8 °C.

(Values after patent publication US5986083A, “Synthetic oligomers having phosphonate internucleosidyl linkages of undefined chirality mixed with non-phosphonate internucleosidyl linkages” (priority 1994, dated 1999).)
